One molecule from patent US20250205373A1, “ENRICHED AND STABLE RADIOLIGAND THERAPY FORMULATIONS AND PHARMACEUTICAL COMPOSITIONS COMPRISING SAME” (Mariana Oncology Inc., priority 2023, published 2025) can be followed below.

Numbered stars: 1 amine (or outer) side, 2 acyl side, 3 side chain; on linkers, the order of the positions; unused ones are H or OH. Bridge positions count the residues as written; N and C are the ends. Square brackets hold non-standard residues; d marks the D form. Side chains are listed from the residue outwards. Peptide text beside a SMILES is read from it. * marks the point of attachment. Ala(1-CH2CO2H-4-piperidyl) = N[C@@H](CC1CCN(CC(=O)O)CC1)C(=O)O; Ala(piperidin-4-yl) = O=C([C@H](CC1CCN([*:3])CC1)N[*:1])[*:2]; X1 = CC(C)[C@H](N[*:1])C(=O)C[C@@H](Cc1ccc(O)cc1)C(=O)[*:2]; DOTA = O=C(O)CN1CCN(CC(=O)O)CCN(CC(=O)*)CCN(CC(=O)O)CC1; Trp(5-F) = N[C@@H](Cc1c[nH]c2ccc(F)cc12)C(=O)O; X2 = C[C@@H](c1ccccc1)[C@H](N[*:1])C(=O)[*:2]; Val(3-OH) = CC(C)(O)[C@H](N)C(=O)O; PEG4 = NCCOCCOCCOCCOCCC(=O)O; Tle = CC(C)(C)[C@H](N)C(=O)O; hLeu = CC(C)CC[C@H](N)C(=O)O

The target in this assay is T1, B7-H3 (41 g) (Homo sapiens, UniProt Q5ZPR3).
T1 sequence (Q5ZPR3 29-534): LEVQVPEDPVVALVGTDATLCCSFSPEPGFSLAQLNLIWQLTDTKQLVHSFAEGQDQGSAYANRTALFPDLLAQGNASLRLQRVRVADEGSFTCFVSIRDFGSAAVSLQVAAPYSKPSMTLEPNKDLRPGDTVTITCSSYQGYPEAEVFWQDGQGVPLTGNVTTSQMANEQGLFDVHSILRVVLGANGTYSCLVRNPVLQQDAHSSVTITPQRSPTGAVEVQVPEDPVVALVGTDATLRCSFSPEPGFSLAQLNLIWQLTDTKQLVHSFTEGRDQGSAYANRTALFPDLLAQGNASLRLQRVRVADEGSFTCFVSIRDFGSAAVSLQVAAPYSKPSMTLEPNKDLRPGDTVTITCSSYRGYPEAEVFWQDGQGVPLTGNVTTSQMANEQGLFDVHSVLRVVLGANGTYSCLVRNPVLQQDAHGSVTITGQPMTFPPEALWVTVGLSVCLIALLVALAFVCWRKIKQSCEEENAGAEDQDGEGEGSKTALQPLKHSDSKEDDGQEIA
Briefly: Binding of Compound 496 to B7-H3.

Take `CC(=O)N[C@@H](CCC(C)C)C(=O)N[C@@H](Cc1ccc(O)cc1)C(=O)N[C@H]1CSSC[C@@H](C(=O)N[C@@H](Cc2c[nH]c3ccc(F)cc23)C(=O)N[C@H](C(=O)N[C@H](C(=O)N[C@H](CCC(=O)O)C(N)=O)C(C)(C)O)[C@@H](C)c2ccccc2)NC(=O)[C@H](Cc2ccc(O)cc2)CC(=O)[C@H](C(C)C)NC(=O)[C@H](CC(=O)O)NC(=O)[C@H](CC2CCN(C(=O)CCOCCOCCOCCOCCNC(=O)CN3CCN(CC(=O)O)CCN(CC(=O)O)CCN(CC(=O)O)CC3)CC2)NC(=O)[C@H](CC2CCN(CC(=O)O)CC2)NC(=O)CNC(=O)[C@H](C(C)(C)C)NC1=O` [Compound 496] (Ac-[hLeu]YC[Tle]G[Ala(1-CH2CO2H-4-piperidyl)][Ala(piperidin-4-yl)]([PEG4-DOTA])D[X1]C[Trp(5-F)][X2][Val(3-OH)][dE]-NH2; disulfide 3-10): the “selectivity over the 21 g isoform” value (B7-H3 (41 g) vs 21 g isoform) is reported as “selectivity over the 21 g isoform”. Further, the binding affinity entry (B7-H3 (41 g), the predominant form expressed by tumor cells) is recorded as “high affinity”.
